{"source": "patent US9175077B2", "about": "“Nucleic acids encoding biologically active polypeptides derived from a novel early stage pregnancy factor designated maternin (MA)” (NOBEL BIOSCIENCES LLC, priority 1999, dated 2015)", "key": {"human tumor cells": {"test_system": "human tumor cells", "format": "cell-based"}, "[1]": {"test_system": "spontaneous breast carcinomas", "assay": "Spontaneous breast carcinomas in Sprague-Dawley rats", "format": "in vivo", "details": "2 weeks of therapy", "description": "As shown, MA killed a wide variety of human tumor cells in vitro and in vivo killed xenotransplanted human tumors in immune deficient mice. We wanted to be certain that the in vivo results would not be limited to immune deficient mice. […] Therefore, we tested the effects of MA on: • spontaneous fibrosarcomas which developed in three older FVB/N mice; and • spontaneous breast carcinomas which developed in three older Sprague-Dawley rats.\nSimilar results were obtained with the spontaneous mammary carcinomas of rats."}, "hCG receptor": {"molecular_target": "T1, hCG receptor (Homo sapiens, UniProt P22888)", "T1 construct": "host or cells: unspecified cells", "T1 sequence (P22888 27-699)": "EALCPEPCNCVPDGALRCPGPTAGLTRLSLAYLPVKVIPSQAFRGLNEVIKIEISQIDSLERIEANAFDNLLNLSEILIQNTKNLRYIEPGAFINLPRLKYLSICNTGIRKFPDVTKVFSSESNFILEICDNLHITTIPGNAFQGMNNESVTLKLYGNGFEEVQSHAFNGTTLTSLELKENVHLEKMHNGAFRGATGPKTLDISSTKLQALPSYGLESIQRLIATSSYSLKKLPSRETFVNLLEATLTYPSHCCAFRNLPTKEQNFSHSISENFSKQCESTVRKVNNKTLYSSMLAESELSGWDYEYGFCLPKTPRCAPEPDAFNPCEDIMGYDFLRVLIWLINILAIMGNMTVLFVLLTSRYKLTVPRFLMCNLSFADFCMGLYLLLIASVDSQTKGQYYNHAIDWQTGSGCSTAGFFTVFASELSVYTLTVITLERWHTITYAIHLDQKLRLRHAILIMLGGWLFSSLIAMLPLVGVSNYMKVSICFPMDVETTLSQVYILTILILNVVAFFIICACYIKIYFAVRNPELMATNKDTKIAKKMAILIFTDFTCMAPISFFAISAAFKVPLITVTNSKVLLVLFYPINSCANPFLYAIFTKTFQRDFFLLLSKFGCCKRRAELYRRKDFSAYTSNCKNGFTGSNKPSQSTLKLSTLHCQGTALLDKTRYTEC", "assay": "hCG receptor binding", "description": "In this regard, unusual β-hCG gene transcripts have been known for several years,^207 and as noted above, among the several related heterodimeric glycoprotein hormones, only β-hCG has multiple genes."}}, "note": "“Also recorded” adds a separate entry of the source.", "data": [{"sequence": "VVCNYRDVRFESIRLPGCPRGVNPVVSYAVALSCQ [MA]", "values": [{"measurement": "effect on HTLV-I induced adult T-cell leukemia", "setting": "human tumor cells", "value": "no effect"}, {"measurement": "effect on some β-cell lymphomas", "setting": "human tumor cells", "value": "no effect"}, {"measurement": "tumor outcome", "setting": "[1]", "value": "complete tumor regression; also recorded: partial tumor regression"}, {"measurement": "binding to the hCG receptor", "setting": "hCG receptor", "value": "does not bind"}]}]}
